For the data set, the system named is Male C57 mice. Put plainly: High-fat diet mice: liver triglycerides and plasma AST. The note with it: 60 mg/kg once a day oral gavage. It is filed as in vivo, mouse. On the procedure: Male C57 mice (n=24) were given a diet containing […] (a high-fat, “fast food” diet) for 3 weeks. Miricorilant (60 mg/kg) was administered once a day via oral gavage. Plasma aspartate aminotransferase (AST) was measured on days 3, 7, 12, and 18 and 6 mice were sacrificed each week at weeks 1, 2, and 3 for the miricorilant groups and at week 3 for the control (high-fat diet, no miricorilant) group for assessment of liver triglycerides.

With `O=c1[nH]c(=O)c(Cc2cccc(C(F)(F)F)c2)c([C@H]2CC[C@H](c3ccccc3)CC2)[nH]1` [miricorilant, (E)-6-(4-Phenylcyclohexyl)-5-(3-trifluoromethylbenzyl)-1H-pyrimidine-2,4-dione], the Liver triglycerides result (high-fat diet for 3 weeks, starting at week 1, vs high-fat diet control (FIG. 6A)) is recorded as “rapid reduction”. For the same compound, the “Plasma AST” value (high-fat diet, no change in dose (FIG. 6B)) is on record as “transient increase at 2 weeks but normalized by 3 weeks”.

These data come from patent publication US12616698B2, “Methods for reducing liver fat and for treating fatty liver disorders” (Corcept Therapeutics Incorporated, priority 2021, dated 2026).
